Patent US20200278355A1, “CONJUGATED PROTEINS AND USES THEREOF” (THE SCRIPPS RESEARCH INSTITUTE, priority 2017, published 2020)

Target: T1, SCP2 (Homo sapiens, UniProt P22307)
T1 construct: H460 cells or H460 cells expressing luciferase in a 10 cm plate were incubated with indicated compounds; endogenous in cells; host or cells: H460
Experiment: isoTOP-ABPP of compound-treated H460 cells: SCP2
Assay type: cell-based
Settings: SCP2 C94; 40 μM
Description: For analysis of NR0B1 ligands or control compound reactivity, H460 cells or H460 cells expressing luciferase in a 10 cm plate were incubated with indicated compounds in serum/dye-free RPMI for 3 hours at 37° C. Cells were washed once ice-cold PBS and lysed in 1% Triton X-100 dissolved in PBS with protease inhibitors (Sigma) by sonication. Samples were clarified by centrifugation for 10 min at 16,000×g. Lysate was adjusted to 1.5 mg ml^−1 in 500 μL.
Samples were labeled for 1 h at ambient temperature with 100 μM iodoacetamide alkyne (1, IA-alkyne, 5 μL of 10 mM stock in DMSO). Samples were conjugated by copper-catalyzed azide-alkyne cycloaddition (CuAAC) to isotopically labeled, TEV-cleavable tags (TEV-tags). Heavy CuAAC reaction mixtures was added to the DMSO-treated or shGFP control samples and light CuAAC reaction mixture was added to compound-treated or shNRF2 samples. The CuAAC reaction mixture consisted of TEV tags (light or heavy, 10 μL of 5 mM stocks in DMSO, final concentration=100 μM), 1 mM tris(2-carboxyethyl)phosphine hydrochloride (TCEP; fresh 50× stock in water, final concentration=1 mM), ligand (17× stock in DMSO:t-butanol 1:4, final concentration=100 μM) and 1 mM CuSO4 (50× stock in water, final concentration=1 mM). The samples were allowed to react for 1 h at which point the samples were centrifuged (16,000×g, 5 min, 4° C.). […]

T1 sequence (P22307 whole entry): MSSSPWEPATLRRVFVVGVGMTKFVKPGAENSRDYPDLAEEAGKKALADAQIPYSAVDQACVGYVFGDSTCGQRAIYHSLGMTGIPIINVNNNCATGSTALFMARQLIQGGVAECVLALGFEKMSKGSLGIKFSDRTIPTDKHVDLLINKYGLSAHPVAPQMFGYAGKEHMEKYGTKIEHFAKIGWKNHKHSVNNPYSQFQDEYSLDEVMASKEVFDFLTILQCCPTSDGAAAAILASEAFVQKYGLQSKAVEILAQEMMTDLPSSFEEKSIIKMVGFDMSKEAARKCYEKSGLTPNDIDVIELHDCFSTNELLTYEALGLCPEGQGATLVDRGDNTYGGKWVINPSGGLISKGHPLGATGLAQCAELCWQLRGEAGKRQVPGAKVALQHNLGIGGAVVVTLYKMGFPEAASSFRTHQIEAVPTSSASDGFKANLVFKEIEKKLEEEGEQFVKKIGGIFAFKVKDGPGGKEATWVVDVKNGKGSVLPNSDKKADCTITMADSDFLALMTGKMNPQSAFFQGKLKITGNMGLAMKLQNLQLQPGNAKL

With `O=C(c1ccc(N2CCOCC2)cc1)N1CCCC(N(Cc2ccccc2)C(=O)CCl)CC1` (stereo not shown) [BPK-29, N-benzyl-2-chloro-N-(1-(4-morpholinobenzoyl)azepan-4-yl)acetamide] the “BPK-29-competed isoTOP-ABPP analysis” value was “Yes (Competed defined as showing R value ≥ 3.0 at 40 μM of test compound)”.
